pIC50: −log10 of the molar value.
What was measured:
[1] = molecular target: T1, Renin (Homo sapiens, UniProt P00797); test: Evaluation of inhibitory activity against human renin.
T1 sequence (P00797 whole entry): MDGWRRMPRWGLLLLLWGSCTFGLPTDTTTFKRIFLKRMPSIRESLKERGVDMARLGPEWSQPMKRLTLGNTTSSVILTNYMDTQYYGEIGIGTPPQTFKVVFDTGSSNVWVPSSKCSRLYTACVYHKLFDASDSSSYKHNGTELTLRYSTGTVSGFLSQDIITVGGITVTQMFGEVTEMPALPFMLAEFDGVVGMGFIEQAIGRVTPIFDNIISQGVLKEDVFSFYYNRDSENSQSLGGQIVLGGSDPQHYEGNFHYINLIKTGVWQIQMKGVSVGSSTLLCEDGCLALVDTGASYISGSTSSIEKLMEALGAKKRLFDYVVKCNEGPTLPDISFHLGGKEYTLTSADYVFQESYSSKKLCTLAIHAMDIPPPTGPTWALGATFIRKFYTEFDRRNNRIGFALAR

[2] = molecular target: T1, Renin; test: Evaluation of inhibitory activity against human renin. value in parentheses indicate no. of determinations
[3] = molecular target: T1, Renin; test: Evaluation of inhibitory activity against human renin

| SMILES | pIC50 [2] | pIC50 [3] | also measured |
| --- | --- | --- | --- |
| CCOP(=O)(OCC)[C@@H](O)[C@H](CC1CCCCC1)NC(=O)[C@H](CC(C)C)NC(=O)[C@H](Cc1ccccc1)NC(=O)OC(C)(C)C |  |  | pIC50 [1]: 4.39 |
| COP(=O)(OC)[C@H](O)[C@H](CC1CCCCC1)NC(=O)[C@H](CC(C)C)NC(=O)[C@H](Cc1ccccc1)NC(=O)CCCCCN |  | 7.51 |  |
| CCOC(=O)[C@H](O)[C@H](CC1CCCCC1)NC(=O)[C@H](CC(C)C)NC(=O)[C@H](Cc1ccccc1)NC(=O)OC(C)(C)C |  | 8.30 |  |
| COP(=O)(OC)[C@H](O)[C@H](CC1CCCCC1)NC(=O)[C@H](CC(C)C)NC(=O)[C@H](Cc1ccccc1)NC(=O)N1CCOCC1 |  | 8.07 |  |
| COP(=O)(OC)[C@H](O)[C@H](CC1CCCCC1)NC(=O)[C@H](Cc1cnc[nH]1)NC(=O)[C@H](Cc1ccccc1)NC(=O)N1CCOCC1 |  | 7.39 |  |
| COP(=O)(OC)[C@H](O)[C@H](CC1CCCCC1)NC(=O)[C@H](CC(C)C)NC(=O)[C@H](Cc1ccccc1)NC(=O)OC(C)(C)C |  |  | pIC50 [1]: 8.00 |
| CCOP(=O)(OCC)[C@H](O)[C@H](CC1CCCCC1)NC(=O)[C@H](CC(C)C)NC(=O)[C@H](Cc1ccccc1)NC(=O)C1CCCC1 |  |  | pIC50 [1]: 7.42 |
| CCOP(=O)(OCC)[C@H](O)[C@H](CC1CCCCC1)NC(=O)[C@H](CC(C)C)NC(=O)[C@H](Cc1ccccc1)NC(=O)OC(C)(C)C |  |  | pIC50 [1]: 7.54 |
| COP(=O)(OC)[C@H](O)[C@H](CC1CCCCC1)NC(=O)[C@H](Cc1cnc[nH]1)NC(=O)[C@H](Cc1ccccc1)NC(=O)C1CCCC1 |  | 6.66 |  |

Continued, in another order:

| pIC50 [2] | pIC50 [3] | SMILES | also measured |
| --- | --- | --- | --- |
| 6.40 |  | CCP(=O)(CC)[C@H](O)[C@H](CC1CCCCC1)NC(=O)[C@H](CC(C)C)NC(=O)[C@H](Cc1ccccc1)NC(=O)C1CCCC1 |  |
|  | 4.57 | COP(=O)(O)[C@H](O)[C@H](CC1CCCCC1)NC(=O)[C@H](CC(C)C)NC(=O)[C@H](Cc1ccccc1)NC(=O)C1CCCC1 |  |
| 5.28 |  | CCP(=O)(CC)[C@@H](O)[C@H](CC1CCCCC1)NC(=O)[C@H](CC(C)C)NC(=O)[C@H](Cc1ccccc1)NC(=O)C1CCCC1 |  |
|  | 7.80 | COP(=O)(OC)[C@H](O)[C@H](CC1CCCCC1)NC(=O)[C@H](CC(C)C)NC(=O)[C@H](Cc1ccccc1)NC(=O)C1CCCC1 |  |
| 6.68 |  | CCP(=O)(OC)C(O)[C@H](CC1CCCCC1)NC(=O)[C@H](CC(C)C)NC(=O)[C@H](Cc1ccccc1)NC(=O)C1CCCC1 (stereo in doubt; 28) |  |
| 7.36 |  | CCP(=O)(OC)C(O)[C@H](CC1CCCCC1)NC(=O)[C@H](CC(C)C)NC(=O)[C@H](Cc1ccccc1)NC(=O)C1CCCC1 (stereo in doubt; 29) |  |
| 5.62 |  | CCP(=O)(OC)C(O)[C@H](CC1CCCCC1)NC(=O)[C@H](CC(C)C)NC(=O)[C@H](Cc1ccccc1)NC(=O)C1CCCC1 (stereo in doubt; 30) |  |
